pIC50: −log10 of the molar value.

What is called pIC50 is the IC50 on a negative log10 scale, so that one unit is a factor of ten.

Beta-3 Adrenergic Receptor, sequence (P13945 whole entry, species assumed): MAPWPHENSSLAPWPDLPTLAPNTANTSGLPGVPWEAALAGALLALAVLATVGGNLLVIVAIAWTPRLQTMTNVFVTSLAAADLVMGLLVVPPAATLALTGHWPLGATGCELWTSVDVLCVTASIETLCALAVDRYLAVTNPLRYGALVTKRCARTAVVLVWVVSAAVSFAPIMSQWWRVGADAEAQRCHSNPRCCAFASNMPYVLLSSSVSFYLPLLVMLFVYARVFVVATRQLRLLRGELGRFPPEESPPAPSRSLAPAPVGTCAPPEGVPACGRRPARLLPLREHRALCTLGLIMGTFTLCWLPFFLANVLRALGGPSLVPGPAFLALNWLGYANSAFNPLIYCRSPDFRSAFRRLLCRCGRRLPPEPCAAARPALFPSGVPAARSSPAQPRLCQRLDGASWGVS

This assay addresses Beta-3 Adrenergic Receptor (Homo sapiens (Human), UniProt P13945). Description: Homogeneous Time-Resolved Fluorescence (HTRF) cAMP antagonist assay, IC50 determination. Type of assay: cell-based. The note with it: CHO-K1 cells stably expressing recombinant receptor, isoproterenol at EC90. The method, boiled down: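 CHO-K1 cells stably expressing receptor, 1500 cells/well, preincubated briefly with 10-point 5-fold compound series (top final typically 10 or 100 μM) in PBS with 1 mM IBMX, then challenged with isoproterenol at EC90 for 1 h at room temperature. cAMP read by HTRF against on-plate standard curve; IC50 from dose-response.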
On the technique in general: In TR-FRET formats the signal depends on donor and acceptor labels being close together.
Take `CNS(=O)(=O)c1cccc(OC[C@@H](O)CN[C@@H]2COC3(CCN(S(=O)(=O)c4cccc(-c5ccc(CN)cc5)c4C)CC3)C2)c1` [Compound 447, 3-((S)-3-((S)-8-(4′-(aminomethyl)-2-methylbiphenyl-3-ylsulfonyl)-1-oxa-8-azaspiro[4.5]decan-3-ylamino)-2-hydroxypropoxy)-N-methylbenzenesulfonamide]: the negative logarithm of the IC50 (pIC50) is 7.70.
As to `CNS(=O)(=O)c1cccc(OC[C@@H](O)CN[C@@H]2COC3(CCN(S(=O)(=O)c4cccc(-c5ccc(CN)cc5)c4OC)CC3)C2)c1` [Compound 448, 3-((S)-3-((S)-8-(4′-(aminomethyl)-2-methoxybiphenyl-3-ylsulfonyl)-1-oxa-8-azaspiro[4.5]decan-3-ylamino)-2-hydroxypropoxy)-N-methylbenzenesulfonamide], the negative logarithm of the IC50 (pIC50) is 7.49.
Regarding `CNS(=O)(=O)c1cccc(OC[C@@H](O)CN[C@@H]2COC3(CCN(S(=O)(=O)c4cc(OC)cc(-c5ccc(CN)cc5)c4)CC3)C2)c1` [Compound 449, 3-((S)-3-((S)-8-(4′-(aminomethyl)-5-methoxybiphenyl-3-ylsulfonyl)-1-oxa-8-azaspiro[4.5]decan-3-ylamino)-2-hydroxypropoxy)-N-methylbenzenesulfonamide], the negative-log IC50 (pIC50) was 7.91.
As to `CCOc1nc2c(cc1S(=O)(=O)N1CCC3(CC1)C[C@H](NC[C@H](O)COc1cccc(S(=O)(=O)NC)c1)CO3)N(C)CCO2` [Compound 450, 3-((S)-3-((S)-8-(6-ethoxy-1-methyl-2,3-dihydro-1H-pyrido[2,3-b][1,4]oxazin-7-ylsulfonyl)-1-oxa-8-azaspiro[4.5]decan-3-ylamino)-2-hydroxypropoxy)-N-methylbenzenesulfonamide], the pIC50 was 7.55.
With `CONS(=O)(=O)c1cccc(OC[C@@H](O)CN[C@H]2COC3(CCN(S(=O)(=O)c4cnc5c(c4)N(C)CCO5)CC3)C2)c1` [Compound 451, 3-((S)-2-hydroxy-3-((R)-8-(1-methyl-2,3-dihydro-1H-pyrido[2,3-b][1,4]oxazin-7-ylsulfonyl)-1-oxa-8-azaspiro[4.5]decan-3-ylamino)propoxy)-N-methoxybenzenesulfonamide] the figure was 5.67; with `CNc1nc2c(cc1S(=O)(=O)N1CCC3(CC1)C[C@@H](NC[C@H](O)COc1cccc(S(=O)(=O)NC)c1)CO3)N(C)CCO2` [Compound 452, 3-((S)-2-hydroxy-3-((R)-8-(1-methyl-6-(methylamino)-2,3-dihydro-1H-pyrido[2,3-b][1,4]oxazin-7-ylsulfonyl)-1-oxa-8-azaspiro[4.5]decan-3-ylamino)propoxy)-N-methylbenzenesulfonamide], 7.59.
For the compound `CNS(=O)(=O)c1cccc(OC[C@@H](O)CN[C@H]2COC3(CCN(S(=O)(=O)c4cc5c(nc4N(C)C)OCCN5C)CC3)C2)c1` [Compound 453, 3-((S)-3-((R)-8-(6-(dimethylamino)-1-methyl-2,3-dihydro-1H-pyrido[2,3-b][1,4]oxazin-7-ylsulfonyl)-1-oxa-8-azaspiro[4.5]decan-3-ylamino)-2-hydroxypropoxy)-N-methylbenzenesulfonamide], the negative logarithm of the IC50 (pIC50) is 6.94.
As to `CNS(=O)(=O)c1cccc(OC[C@@H](O)CN[C@H]2COC3(CCN(S(=O)(=O)c4cc5c(nc4O)OCCN5C)CC3)C2)c1` [Compound 454, 3-((S)-2-hydroxy-3-((R)-8-(6-hydroxy-1-methyl-2,3-dihydro-1H-pyrido[2,3-b][1,4]oxazin-7-ylsulfonyl)-1-oxa-8-azaspiro[4.5]decan-3-ylamino)propoxy)-N-methylbenzenesulfonamide], the pIC50 is 6.34.
Turning to `CNS(=O)(=O)c1cccc(OC[C@@H](O)CN[C@H]2COC3(CCN(S(=O)(=O)c4cc5c(nc4N)OCCN5C)CC3)C2)c1` [Compound 455, 3-((S)-3-((R)-8-(6-amino-1-methyl-2,3-dihydro-1H-pyrido[2,3-b][1,4]oxazin-7-ylsulfonyl)-1-oxa-8-azaspiro[4.5]decan-3-ylamino)-2-hydroxypropoxy)-N-methylbenzenesulfonamide], the pIC50 is 7.60.
With `CCNS(=O)(=O)c1cccc(OC[C@@H](O)CN[C@H]2COC3(CCN(S(=O)(=O)c4cnc5c(c4)N(C)CCO5)CC3)C2)c1` [Compound 456, N-ethyl-3-((S)-2-hydroxy-3-((R)-8-(1-methyl-2,3-dihydro-1H-pyrido[2,3-b][1,4]oxazin-7-ylsulfonyl)-1-oxa-8-azaspiro[4.5]decan-3-ylamino)propoxy)benzenesulfonamide] the figure was 7.79; with `CN1CCOc2ncc(S(=O)(=O)N3CCC4(CC3)C[C@@H](NC[C@H](O)COc3cccc(S(=O)(=O)NCCF)c3)CO4)cc21` [Compound 457, N-(2-fluoroethyl)-3-((S)-2-hydroxy-3-((R)-8-(1-methyl-2,3-dihydro-1H-pyrido[2,3-b][1,4]oxazin-7-ylsulfonyl)-1-oxa-8-azaspiro[4.5]decan-3-ylamino)propoxy)benzenesulfonamide], 7.53; with `CN1CCOc2ncc(S(=O)(=O)N3CCC4(CC3)C[C@@H](NC[C@H](O)COc3cccc(S(N)(=O)=O)c3)CO4)cc21` [Compound 458, 3-((S)-2-hydroxy-3-((R)-8-(1-methyl-2,3-dihydro-1H-pyrido[2,3-b][1,4]oxazin-7-ylsulfonyl)-1-oxa-8-azaspiro[4.5]decan-3-ylamino)propoxy)benzenesulfonamide], 7.34.
On to `COCCNS(=O)(=O)c1cccc(OC[C@@H](O)CN[C@H]2COC3(CCN(S(=O)(=O)c4cnc5c(c4)N(C)CCO5)CC3)C2)c1` [Compound 459, 3-((S)-2-hydroxy-3-((R)-8-(1-methyl-2,3-dihydro-1H-pyrido[2,3-b][1,4]oxazin-7-ylsulfonyl)-1-oxa-8-azaspiro[4.5]decan-3-ylamino)propoxy)-N-(2-methoxyethyl)benzenesulfonamide], for which the negative-log IC50 (pIC50) was 6.80.
`CN1CCOc2ncc(S(=O)(=O)N3CCC4(CC3)C[C@@H](NC[C@H](O)COc3cccc(S(=O)(=O)NCC#N)c3)CO4)cc21` [Compound 460, N-(cyanomethyl)-3-((S)-2-hydroxy-3-((R)-8-(1-methyl-2,3-dihydro-1H-pyrido[2,3-b][1,4]oxazin-7-ylsulfonyl)-1-oxa-8-azaspiro[4.5]decan-3-ylamino)propoxy)benzenesulfonamide]: the pIC50 was 5.52.
Turning to `CN1CCOc2ncc(S(=O)(=O)N3CCC4(CC3)C[C@@H](NC[C@H](O)COc3cccc(S(=O)(=O)NCC(F)F)c3)CO4)cc21` [Compound 461, N-(2,2-difluoroethyl)-3-((S)-2-hydroxy-3-((R)-8-(1-methyl-2,3-dihydro-1H-pyrido[2,3-b][1,4]oxazin-7-ylsulfonyl)-1-oxa-8-azaspiro[4.5]decan-3-ylamino)propoxy)benzenesulfonamide], the negative-log IC50 (pIC50) is 7.50.
With `CNS(=O)(=O)c1cccc(OC[C@@H](O)CN[C@H]2COC3(CCN(S(=O)(=O)c4cnc5c(c4)N(CCOCc4ccccc4)CCO5)CC3)C2)c1` [Compound 462, 3-((S)-3-((R)-8-(1-(2-(benzyloxy)ethyl)-2,3-dihydro-1H-pyrido[2,3-b][1,4]oxazin-7-ylsulfonyl)-1-oxa-8-azaspiro[4.5]decan-3-ylamino)-2-hydroxypropoxy)-N-methylbenzenesulfonamide], the pIC50 is 6.97.

The record behind these values is patent US11987588B2, “Modulators of the beta-3 adrenergic receptor useful for the treatment or prevention of heart failure and disorders related thereto” (Arena Pharmaceuticals, Inc., priority 2017, dated 2024).
